The record followed here is BindingDB's records for doi:10.1124/jpet.102.047092 (Case Western Reserve University, 2003).

Some targets named below: D(3) dopamine receptor (Homo sapiens, UniProt P35462); Histamine H4 receptor (Homo sapiens, UniProt Q9H3N8); Histamine H1 receptor (Homo sapiens, UniProt P35367).
Experiment [1] has as its target 5-hydroxytryptamine receptor 1B (Homo sapiens, UniProt P28222).
The target of experiment [2] is T1, Alpha-2B adrenergic receptor (Homo sapiens, UniProt P18089).
T1 sequence (P18089 whole entry): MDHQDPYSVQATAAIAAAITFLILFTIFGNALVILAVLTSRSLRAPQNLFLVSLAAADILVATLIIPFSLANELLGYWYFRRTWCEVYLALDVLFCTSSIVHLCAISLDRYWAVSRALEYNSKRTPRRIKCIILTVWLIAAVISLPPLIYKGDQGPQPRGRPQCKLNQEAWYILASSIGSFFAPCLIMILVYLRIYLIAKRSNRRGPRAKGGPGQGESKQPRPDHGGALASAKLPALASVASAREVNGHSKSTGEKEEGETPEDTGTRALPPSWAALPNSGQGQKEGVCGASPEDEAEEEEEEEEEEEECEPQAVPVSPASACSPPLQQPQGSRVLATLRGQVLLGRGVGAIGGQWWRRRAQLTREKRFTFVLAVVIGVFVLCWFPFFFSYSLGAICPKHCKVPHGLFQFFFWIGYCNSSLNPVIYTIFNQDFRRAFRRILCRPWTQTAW

For experiment [3], the target named is Voltage-dependent L-type calcium channel subunit alpha-1C (Rattus norvegicus, UniProt P22002).
Experiment [4] has as its target Neuronal acetylcholine receptor subunit alpha-2 (Homo sapiens, UniProt Q15822).
Experiment [5] addresses Neuronal acetylcholine receptor subunit alpha-3 (Homo sapiens, UniProt P32297).
Experiment [6] addresses Metabotropic glutamate receptor 5 (Rattus norvegicus, UniProt P31424).
In experiment [7] the target is Metabotropic glutamate receptor 4 (Rattus norvegicus, UniProt P31423).
Metabotropic glutamate receptor 4, sequence (P31423 whole entry): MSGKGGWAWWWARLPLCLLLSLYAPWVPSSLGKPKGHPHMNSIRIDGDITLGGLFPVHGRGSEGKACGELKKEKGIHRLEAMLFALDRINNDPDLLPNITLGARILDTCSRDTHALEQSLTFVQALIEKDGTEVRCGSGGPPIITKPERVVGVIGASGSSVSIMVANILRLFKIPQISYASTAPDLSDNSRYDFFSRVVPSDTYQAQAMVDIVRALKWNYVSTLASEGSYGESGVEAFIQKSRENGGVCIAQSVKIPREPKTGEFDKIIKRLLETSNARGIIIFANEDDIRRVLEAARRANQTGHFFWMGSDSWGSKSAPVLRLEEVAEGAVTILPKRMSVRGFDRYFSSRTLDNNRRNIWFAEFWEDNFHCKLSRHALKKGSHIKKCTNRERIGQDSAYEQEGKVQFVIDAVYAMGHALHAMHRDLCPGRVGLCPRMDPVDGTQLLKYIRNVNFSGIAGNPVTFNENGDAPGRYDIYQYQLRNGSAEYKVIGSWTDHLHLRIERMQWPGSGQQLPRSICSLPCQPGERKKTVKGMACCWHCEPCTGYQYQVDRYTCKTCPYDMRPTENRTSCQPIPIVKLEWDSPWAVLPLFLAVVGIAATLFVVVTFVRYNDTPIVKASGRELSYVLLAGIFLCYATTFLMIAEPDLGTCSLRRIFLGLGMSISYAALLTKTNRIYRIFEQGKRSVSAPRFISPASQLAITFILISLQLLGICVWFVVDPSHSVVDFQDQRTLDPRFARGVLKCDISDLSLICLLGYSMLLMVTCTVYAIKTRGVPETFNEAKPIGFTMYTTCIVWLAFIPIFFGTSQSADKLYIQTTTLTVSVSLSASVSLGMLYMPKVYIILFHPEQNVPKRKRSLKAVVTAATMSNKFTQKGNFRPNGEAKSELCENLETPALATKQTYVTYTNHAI
Experiment [8] has as its target Metabotropic glutamate receptor 8 (Rattus norvegicus, UniProt P70579).
Experiment [9] deals with Metabotropic glutamate receptor 6 (Rattus norvegicus, UniProt P35349).
Metabotropic glutamate receptor 6, sequence (P35349 whole entry): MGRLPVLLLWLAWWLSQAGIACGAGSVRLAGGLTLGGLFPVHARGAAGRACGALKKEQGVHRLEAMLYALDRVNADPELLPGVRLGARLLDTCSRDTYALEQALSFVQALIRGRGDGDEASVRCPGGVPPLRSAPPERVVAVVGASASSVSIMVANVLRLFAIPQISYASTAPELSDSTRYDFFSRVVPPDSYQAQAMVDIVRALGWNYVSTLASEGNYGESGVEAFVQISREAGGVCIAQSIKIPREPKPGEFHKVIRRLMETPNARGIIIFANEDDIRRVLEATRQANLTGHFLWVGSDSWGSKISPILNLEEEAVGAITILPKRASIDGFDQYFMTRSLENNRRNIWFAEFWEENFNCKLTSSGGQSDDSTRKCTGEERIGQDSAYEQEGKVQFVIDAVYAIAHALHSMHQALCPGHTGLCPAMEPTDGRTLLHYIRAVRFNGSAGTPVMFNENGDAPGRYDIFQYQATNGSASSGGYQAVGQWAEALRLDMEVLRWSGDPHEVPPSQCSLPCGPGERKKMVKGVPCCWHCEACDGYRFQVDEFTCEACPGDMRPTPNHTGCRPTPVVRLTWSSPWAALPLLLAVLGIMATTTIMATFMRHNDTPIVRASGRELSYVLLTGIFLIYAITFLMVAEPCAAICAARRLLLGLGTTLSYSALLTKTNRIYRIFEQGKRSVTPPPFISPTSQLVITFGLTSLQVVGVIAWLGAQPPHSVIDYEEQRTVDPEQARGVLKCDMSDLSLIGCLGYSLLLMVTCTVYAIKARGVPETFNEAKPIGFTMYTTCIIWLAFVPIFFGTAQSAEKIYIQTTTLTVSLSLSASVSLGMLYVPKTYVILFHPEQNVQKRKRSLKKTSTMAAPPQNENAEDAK
Experiment [10] concerns the target Metabotropic glutamate receptor 2 (Rattus norvegicus) (UniProt P31421).
In experiment [11] the target is Metabotropic glutamate receptor 1 (Rattus norvegicus, UniProt P23385).

Neuronal acetylcholine receptor subunit alpha-2, sequence (Q15822 whole entry): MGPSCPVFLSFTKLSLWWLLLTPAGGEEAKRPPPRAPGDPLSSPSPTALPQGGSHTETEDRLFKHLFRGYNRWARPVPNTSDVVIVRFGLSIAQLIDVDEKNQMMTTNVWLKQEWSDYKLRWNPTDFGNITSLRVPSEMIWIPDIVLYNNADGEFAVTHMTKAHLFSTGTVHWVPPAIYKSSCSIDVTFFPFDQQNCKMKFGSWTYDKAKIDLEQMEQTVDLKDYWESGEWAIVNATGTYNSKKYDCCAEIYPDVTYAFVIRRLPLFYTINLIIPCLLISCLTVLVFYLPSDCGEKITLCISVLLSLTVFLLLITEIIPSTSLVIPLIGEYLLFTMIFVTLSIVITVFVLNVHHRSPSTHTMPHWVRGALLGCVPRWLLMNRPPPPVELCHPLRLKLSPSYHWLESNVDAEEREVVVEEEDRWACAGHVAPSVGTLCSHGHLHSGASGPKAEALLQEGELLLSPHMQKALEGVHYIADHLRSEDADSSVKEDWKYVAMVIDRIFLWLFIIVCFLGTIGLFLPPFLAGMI
Metabotropic glutamate receptor 8, sequence (P70579 whole entry): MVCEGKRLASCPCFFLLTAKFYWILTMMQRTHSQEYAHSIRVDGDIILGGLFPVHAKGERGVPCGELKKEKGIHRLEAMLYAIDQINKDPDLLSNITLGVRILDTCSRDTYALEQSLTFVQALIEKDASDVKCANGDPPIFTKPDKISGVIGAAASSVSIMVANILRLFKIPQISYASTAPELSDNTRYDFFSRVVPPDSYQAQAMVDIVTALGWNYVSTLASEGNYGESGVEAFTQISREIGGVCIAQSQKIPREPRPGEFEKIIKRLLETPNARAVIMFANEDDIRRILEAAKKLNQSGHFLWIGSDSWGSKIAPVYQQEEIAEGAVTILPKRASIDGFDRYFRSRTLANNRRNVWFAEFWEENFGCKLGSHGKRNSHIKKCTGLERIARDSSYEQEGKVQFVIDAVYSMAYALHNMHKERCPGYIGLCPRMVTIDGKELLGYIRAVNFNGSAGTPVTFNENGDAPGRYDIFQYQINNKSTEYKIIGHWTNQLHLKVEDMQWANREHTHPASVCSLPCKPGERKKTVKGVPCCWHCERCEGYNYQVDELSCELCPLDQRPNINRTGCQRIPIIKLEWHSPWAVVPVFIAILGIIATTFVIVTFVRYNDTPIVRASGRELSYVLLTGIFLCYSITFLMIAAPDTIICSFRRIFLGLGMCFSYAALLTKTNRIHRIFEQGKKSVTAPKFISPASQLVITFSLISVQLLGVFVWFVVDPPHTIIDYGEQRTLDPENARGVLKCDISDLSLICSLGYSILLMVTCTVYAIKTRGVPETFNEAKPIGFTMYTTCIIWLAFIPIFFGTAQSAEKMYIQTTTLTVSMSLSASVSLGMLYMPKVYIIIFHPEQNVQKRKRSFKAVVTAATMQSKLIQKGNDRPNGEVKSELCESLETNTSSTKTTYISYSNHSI
Metabotropic glutamate receptor 2 (Rattus norvegicus), sequence (P31421 whole entry, looked up): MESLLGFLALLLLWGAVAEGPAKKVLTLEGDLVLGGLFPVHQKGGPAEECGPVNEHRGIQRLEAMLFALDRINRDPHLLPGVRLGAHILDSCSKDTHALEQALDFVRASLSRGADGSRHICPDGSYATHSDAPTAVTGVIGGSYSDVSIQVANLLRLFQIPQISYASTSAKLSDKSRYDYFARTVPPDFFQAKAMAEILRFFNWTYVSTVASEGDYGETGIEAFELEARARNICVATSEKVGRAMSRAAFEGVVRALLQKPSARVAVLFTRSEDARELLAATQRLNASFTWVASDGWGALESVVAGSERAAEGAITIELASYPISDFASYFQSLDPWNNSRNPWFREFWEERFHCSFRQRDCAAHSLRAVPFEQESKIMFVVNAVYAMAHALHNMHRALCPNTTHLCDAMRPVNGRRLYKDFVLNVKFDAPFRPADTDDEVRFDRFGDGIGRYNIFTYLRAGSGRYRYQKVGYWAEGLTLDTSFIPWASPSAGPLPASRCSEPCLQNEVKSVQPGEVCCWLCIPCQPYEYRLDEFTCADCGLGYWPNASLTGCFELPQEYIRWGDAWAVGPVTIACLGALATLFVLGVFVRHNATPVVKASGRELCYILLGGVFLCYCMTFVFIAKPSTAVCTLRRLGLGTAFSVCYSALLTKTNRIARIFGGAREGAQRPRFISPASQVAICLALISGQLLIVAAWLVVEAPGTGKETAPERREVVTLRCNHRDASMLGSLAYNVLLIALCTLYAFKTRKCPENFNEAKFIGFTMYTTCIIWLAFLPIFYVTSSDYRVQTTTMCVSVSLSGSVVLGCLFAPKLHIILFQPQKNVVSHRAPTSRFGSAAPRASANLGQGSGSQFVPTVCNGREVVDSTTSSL
D(3) dopamine receptor, sequence (P35462 as listed by the source): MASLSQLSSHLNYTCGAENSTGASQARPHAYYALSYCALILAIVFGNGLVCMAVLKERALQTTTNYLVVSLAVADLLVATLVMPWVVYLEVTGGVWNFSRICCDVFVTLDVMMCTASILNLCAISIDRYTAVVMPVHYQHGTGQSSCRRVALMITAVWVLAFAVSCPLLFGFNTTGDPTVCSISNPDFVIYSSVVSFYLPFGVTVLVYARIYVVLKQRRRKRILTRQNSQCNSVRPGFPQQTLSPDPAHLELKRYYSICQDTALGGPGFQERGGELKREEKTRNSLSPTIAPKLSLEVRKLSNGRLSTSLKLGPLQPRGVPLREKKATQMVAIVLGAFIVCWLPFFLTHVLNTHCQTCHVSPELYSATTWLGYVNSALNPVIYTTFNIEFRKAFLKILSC
Neuronal acetylcholine receptor subunit alpha-3, sequence (P32297 whole entry): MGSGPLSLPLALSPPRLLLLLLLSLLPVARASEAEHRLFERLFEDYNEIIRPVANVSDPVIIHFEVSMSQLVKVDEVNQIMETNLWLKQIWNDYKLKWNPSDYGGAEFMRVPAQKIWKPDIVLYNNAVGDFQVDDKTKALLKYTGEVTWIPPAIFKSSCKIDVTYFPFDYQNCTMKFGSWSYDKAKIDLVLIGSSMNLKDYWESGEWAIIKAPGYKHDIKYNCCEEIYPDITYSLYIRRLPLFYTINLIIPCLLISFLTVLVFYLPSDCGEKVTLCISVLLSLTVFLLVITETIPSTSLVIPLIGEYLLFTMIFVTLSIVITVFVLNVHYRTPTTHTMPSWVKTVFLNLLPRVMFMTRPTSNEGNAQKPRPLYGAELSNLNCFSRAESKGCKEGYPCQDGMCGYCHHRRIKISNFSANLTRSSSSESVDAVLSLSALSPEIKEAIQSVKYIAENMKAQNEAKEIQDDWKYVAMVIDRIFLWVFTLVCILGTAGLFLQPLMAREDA

Broadly, the Ki is the equilibrium dissociation constant of an inhibitor or competing ligand from its target. Consider `N[C@@H](CCS(=O)(=O)O)C(=O)O` (racemic), for which the inhibition constant (Ki) (on D(3) dopamine receptor; in experiment [1]; in [2]) was greater than 10 µM each time.

For `N[C@@H](CCS)C(=O)O` (racemic) [CAS_778], the Ki (at D(3) dopamine receptor; at Histamine H4 receptor; on Histamine H1 receptor; in experiment [1]; in experiment [2]; in experiment [3]) was greater than 10 µM each time. Moreover, the Ki in [4] and in experiment [5] was greater than 10 µM in each case.

The EC50 is the concentration that produces a half-maximal response. Take `NC(CS(=O)O)C(=O)O` (stereo not drawn) [CAS_109]: the Ki (on D(3) dopamine receptor; on Histamine H4 receptor; on Histamine H1 receptor; in experiment [1]; in experiment [2]; in [3]) was greater than 10 µM each time. The Ki in experiment [4] and in experiment [5] was greater than 10 µM each time. The EC50 in experiment [6], in [7], in experiment [8], in experiment [9], in experiment [10] and in experiment [11] was greater than 10 µM in each case.

Consider `NC(CSSCC(N)C(=O)O)C(=O)O` (stereo not drawn) [CAS_595], for which the Ki (at D(3) dopamine receptor; on Histamine H4 receptor; at Histamine H1 receptor; in [1]; in experiment [2]; in [3]) was greater than 10 µM in each case. The Ki in experiment [4] and in experiment [5] was greater than 10 µM each time.

Turning to `N[C@@H](CS)C(=O)O` [CAS_5862], the Ki (on D(3) dopamine receptor; on Histamine H4 receptor; at Histamine H1 receptor; in experiment [1]; in experiment [2]; in experiment [3]) was greater than 10 µM throughout. For the same compound, the inhibition constant Ki in experiment [4] and in experiment [5] was greater than 10 µM in each case.

In the case of `CSCC[C@@H](N)C(=O)O` [CAS_6137], the inhibitory constant (Ki) (on D(3) dopamine receptor; at Histamine H4 receptor; on Histamine H1 receptor; in [1]; in experiment [2]; in experiment [3]) was greater than 10 µM each time. In addition, the Ki in experiment [4] and in experiment [5] was greater than 10 µM throughout.

Turning to `N[C@H](CCS(=O)(=O)O)C(=O)O` [D-homocysteic acid], the inhibition constant Ki (at D(3) dopamine receptor; on Histamine H4 receptor; on Histamine H1 receptor; in [1]; in [2]; in experiment [3]) was greater than 10 µM throughout. In addition, the inhibitory constant (Ki) in experiment [4] and in experiment [5] was greater than 10 µM each time.

As for `N[C@H](CCS(=O)O)C(=O)O` [D-homocysteine sulfinic acid], the Ki (on D(3) dopamine receptor; at Histamine H4 receptor; at Histamine H1 receptor; in experiment [1]; in experiment [2]; in experiment [3]) was greater than 10 µM throughout. Further, the inhibition constant (Ki) in experiment [4] and in experiment [5] was greater than 10 µM throughout.

For `N[C@@H]1CCSC1=O` [D-homocysteine thiolactone], the Ki (at Histamine H4 receptor; on Histamine H1 receptor; in [3]; in experiment [4]; in experiment [5]) was greater than 10 µM throughout.

With `N[C@H](CS(=O)(=O)O)C(=O)O` [L-cysteic acid], the Ki (on D(3) dopamine receptor; at Histamine H4 receptor; at Histamine H1 receptor; in experiment [1]; in [3]; in experiment [4]) was greater than 10 µM each time. The compound also had a Ki in [5] greater than 10 µM. Moreover, the concentration giving a half-maximal response (EC50) in [6], in experiment [7], in experiment [8], in experiment [9], in experiment [10] and in [11] was greater than 10 µM throughout.

For the compound `N[C@@H](CCS(=O)O)C(=O)O` [L-homocysteine sulfinic acid], the inhibition constant Ki (at D(3) dopamine receptor; at Histamine H4 receptor; at Histamine H1 receptor; in [1]; in experiment [2]; in experiment [3]) was greater than 10 µM in each case. For the same compound, the Ki in experiment [4] and in experiment [5] was greater than 10 µM each time. Moreover, the EC50 is 5.75 µM in experiment [6]; greater than 10 µM in [7]; greater than 10 µM in experiment [8]; 6.17 µM in [9]; greater than 10 µM in [10]; greater than 10 µM in experiment [11].

In the case of `N[C@H]1CCSC1=O` [NSC_134505], the Ki (on Histamine H4 receptor; on Histamine H1 receptor; in [2]; in experiment [3]; in [4]; in experiment [5]) was greater than 10 µM in each case.
